EP4745137A1 (Gluetacs Therapeutics (Shanghai) Co., Ltd., priority 2023, dated 2025)

Legend:
[1] = system: NCI-H1975; assay: Tumor cell proliferation inhibition (CellTiter-Meiluncell Luminescent Cell Viability Assay), NCI-H1975; settings: Homo sapiens, NCI-H1975, 96 h, read-out: inhibitory activity (IC50, nM) against tumor cells proliferation, H1975
[2] = system: Jurkat; assay: Tumor cell proliferation inhibition (CellTiter-Meiluncell Luminescent Cell Viability Assay), Jurkat; settings: Homo sapiens, 96 h, read-out: inhibitory activity (IC50, nM) against tumor cells proliferation, Jurkat
[3] = system: Human acute T lymphocytic leukemia cells (Molt-4); assay: Tumor cell proliferation inhibition (CellTiter-Meiluncell Luminescent Cell Viability Assay), Molt-4; settings: MOLT-4, 96 h, read-out: inhibitory activity (IC50, nM) against tumor cells proliferation, Molt 4
[4] = molecular target: T1, IKZF2 (Homo sapiens, UniProt Q96SW2+Q9UKS7); assay: Western-blot assay of substrate protein degradation in hPBMCs, IKZF2; format: cell-based; settings: 24 hours of compound treatment, compounds tested at 50 nM and 500 nM (concentration of the table not stated)
T1 construct: endogenous in cells; host or cells: hPBMCs (Milecell Biotechnologies)
T1 sequence (Q9UKS7 whole entry): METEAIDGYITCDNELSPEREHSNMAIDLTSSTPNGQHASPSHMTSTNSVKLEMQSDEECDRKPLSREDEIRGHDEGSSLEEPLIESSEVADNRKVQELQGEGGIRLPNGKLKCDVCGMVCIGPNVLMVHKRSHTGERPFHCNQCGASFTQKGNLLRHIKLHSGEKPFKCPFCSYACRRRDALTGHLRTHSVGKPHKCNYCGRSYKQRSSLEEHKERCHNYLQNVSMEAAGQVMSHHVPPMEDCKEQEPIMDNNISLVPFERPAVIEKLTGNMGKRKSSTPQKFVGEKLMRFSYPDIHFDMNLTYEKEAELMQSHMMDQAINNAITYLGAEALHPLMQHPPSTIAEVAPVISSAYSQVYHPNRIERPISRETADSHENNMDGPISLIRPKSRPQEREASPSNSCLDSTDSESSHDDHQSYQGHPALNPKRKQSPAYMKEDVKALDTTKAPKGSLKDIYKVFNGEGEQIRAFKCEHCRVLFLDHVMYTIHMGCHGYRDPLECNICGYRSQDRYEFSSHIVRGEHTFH
T1 sequence (Q96SW2 whole entry): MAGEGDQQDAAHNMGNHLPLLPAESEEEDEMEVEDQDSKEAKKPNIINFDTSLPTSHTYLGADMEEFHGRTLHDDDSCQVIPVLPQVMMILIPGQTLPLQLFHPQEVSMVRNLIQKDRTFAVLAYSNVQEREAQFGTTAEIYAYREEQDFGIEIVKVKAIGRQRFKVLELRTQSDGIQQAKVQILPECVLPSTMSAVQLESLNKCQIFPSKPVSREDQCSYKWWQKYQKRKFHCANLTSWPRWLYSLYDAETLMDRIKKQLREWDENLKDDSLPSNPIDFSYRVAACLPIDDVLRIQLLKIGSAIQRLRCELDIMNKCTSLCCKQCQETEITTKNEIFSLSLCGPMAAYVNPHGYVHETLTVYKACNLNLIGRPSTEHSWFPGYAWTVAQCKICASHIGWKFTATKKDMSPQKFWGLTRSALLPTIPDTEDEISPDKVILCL
T1 sequence (Q16531 whole entry partner): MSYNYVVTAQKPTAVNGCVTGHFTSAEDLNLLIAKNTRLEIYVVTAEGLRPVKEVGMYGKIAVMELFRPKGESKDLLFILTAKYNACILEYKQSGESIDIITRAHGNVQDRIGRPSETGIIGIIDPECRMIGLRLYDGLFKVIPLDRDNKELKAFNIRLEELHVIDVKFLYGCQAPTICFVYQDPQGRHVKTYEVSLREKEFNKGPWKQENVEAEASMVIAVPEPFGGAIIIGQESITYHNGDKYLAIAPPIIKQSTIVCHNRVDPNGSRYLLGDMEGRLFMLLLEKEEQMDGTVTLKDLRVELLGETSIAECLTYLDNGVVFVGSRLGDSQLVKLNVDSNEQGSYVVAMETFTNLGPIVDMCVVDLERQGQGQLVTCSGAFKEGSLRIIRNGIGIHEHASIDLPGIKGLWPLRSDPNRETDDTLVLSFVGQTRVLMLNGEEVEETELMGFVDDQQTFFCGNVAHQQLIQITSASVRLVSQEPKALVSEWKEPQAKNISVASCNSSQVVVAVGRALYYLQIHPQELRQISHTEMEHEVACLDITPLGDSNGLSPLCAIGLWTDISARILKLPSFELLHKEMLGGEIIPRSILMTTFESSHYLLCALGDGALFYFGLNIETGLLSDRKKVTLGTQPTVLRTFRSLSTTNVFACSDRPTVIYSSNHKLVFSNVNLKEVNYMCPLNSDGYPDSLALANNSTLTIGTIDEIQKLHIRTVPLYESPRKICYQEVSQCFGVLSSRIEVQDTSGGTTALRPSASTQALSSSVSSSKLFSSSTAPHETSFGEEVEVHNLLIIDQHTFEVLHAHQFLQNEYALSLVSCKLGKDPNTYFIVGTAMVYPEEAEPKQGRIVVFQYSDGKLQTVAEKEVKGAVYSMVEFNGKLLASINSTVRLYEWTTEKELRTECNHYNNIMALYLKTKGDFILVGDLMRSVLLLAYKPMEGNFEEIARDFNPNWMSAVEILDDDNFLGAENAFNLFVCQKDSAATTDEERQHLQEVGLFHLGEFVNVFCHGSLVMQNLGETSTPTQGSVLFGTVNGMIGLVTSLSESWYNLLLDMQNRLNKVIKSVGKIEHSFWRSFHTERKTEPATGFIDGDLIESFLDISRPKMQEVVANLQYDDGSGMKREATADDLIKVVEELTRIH

[5] = molecular target: T2, CK1α (Homo sapiens, UniProt P48729+Q96SW2); assay: Western-blot assay of substrate protein degradation in hPBMCs, CK1α; format: cell-based; settings: 24 hours of compound treatment, compounds tested at 50 nM and 500 nM (concentration of the table not stated)
T2 construct: endogenous in cells; host or cells: hPBMCs (Milecell Biotechnologies)

[6] = molecular target: T3, IKZF3 (Homo sapiens, UniProt Q96SW2+Q9UKT9); assay: Western-blot assay of substrate protein degradation in hPBMCs, IKZF3; format: cell-based; settings: 24 hours of compound treatment, compounds tested at 50 nM and 500 nM (concentration of the table not stated)
T3 construct: endogenous in cells; host or cells: hPBMCs (Milecell Biotechnologies)
T3 sequence (Q9UKT9 whole entry): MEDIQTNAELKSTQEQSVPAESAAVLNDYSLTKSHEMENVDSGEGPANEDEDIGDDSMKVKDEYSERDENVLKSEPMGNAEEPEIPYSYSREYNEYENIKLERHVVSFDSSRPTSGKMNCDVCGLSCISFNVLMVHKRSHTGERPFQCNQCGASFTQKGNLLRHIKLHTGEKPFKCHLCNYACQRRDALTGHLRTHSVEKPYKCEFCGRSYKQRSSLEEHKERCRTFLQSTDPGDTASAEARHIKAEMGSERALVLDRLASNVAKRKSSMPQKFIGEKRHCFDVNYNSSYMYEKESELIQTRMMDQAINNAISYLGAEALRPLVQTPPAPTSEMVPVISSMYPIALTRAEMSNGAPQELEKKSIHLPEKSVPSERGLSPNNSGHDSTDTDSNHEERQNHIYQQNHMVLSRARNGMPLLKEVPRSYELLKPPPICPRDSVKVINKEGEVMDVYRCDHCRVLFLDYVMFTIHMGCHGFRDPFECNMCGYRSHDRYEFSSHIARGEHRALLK
T3 sequence (Q96SW2 whole entry): as the sequence (Q96SW2 whole entry) above
T3 sequence (Q16531 whole entry partner): as the sequence (Q16531 whole entry partner) above

[7] = system: Human breast cancer cells (MDA-MB-231); assay: Tumor cell proliferation inhibition (CellTiter-Meiluncell Luminescent Cell Viability Assay), MDA-MB-231; settings: MDA-MB-231, 96 h, read-out: inhibitory activity (IC50, nM) against tumor cells proliferation, MDA-MB-231
[8] = molecular target: T4, WEE1 (Homo sapiens, UniProt P30291+Q96SW2); assay: Western-blot assay of substrate protein degradation in hPBMCs, WEE1; format: cell-based; settings: 24 hours of compound treatment, compounds tested at 50 nM and 500 nM (concentration of the table not stated)
T4 construct: endogenous in cells; host or cells: hPBMCs (Milecell Biotechnologies)
T4 sequence (P30291 whole entry): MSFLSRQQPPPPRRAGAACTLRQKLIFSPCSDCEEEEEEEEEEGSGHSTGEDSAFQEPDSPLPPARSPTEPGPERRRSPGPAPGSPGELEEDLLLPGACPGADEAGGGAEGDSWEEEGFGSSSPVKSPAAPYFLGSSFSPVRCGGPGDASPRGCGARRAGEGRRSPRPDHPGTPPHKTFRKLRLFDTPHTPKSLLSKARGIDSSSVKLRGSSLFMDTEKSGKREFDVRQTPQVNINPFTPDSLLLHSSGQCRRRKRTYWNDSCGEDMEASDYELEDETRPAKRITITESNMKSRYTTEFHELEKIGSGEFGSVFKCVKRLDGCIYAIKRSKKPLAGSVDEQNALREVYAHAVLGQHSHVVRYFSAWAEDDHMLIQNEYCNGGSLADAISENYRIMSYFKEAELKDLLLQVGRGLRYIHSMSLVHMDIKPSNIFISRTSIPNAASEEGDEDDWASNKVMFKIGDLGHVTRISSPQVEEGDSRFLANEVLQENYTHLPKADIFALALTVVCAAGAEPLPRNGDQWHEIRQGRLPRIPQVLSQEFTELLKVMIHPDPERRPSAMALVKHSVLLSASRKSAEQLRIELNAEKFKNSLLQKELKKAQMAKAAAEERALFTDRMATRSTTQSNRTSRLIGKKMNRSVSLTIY
T4 sequence (Q96SW2 whole entry): as the sequence (Q96SW2 whole entry) above
T4 sequence (Q16531 whole entry partner): as the sequence (Q16531 whole entry partner) above

[9] = molecular target: T5, IKZF1 (Homo sapiens, UniProt Q13422+Q96SW2); assay: Western-blot assay of substrate protein degradation in hPBMCs, IKZF1; format: cell-based; settings: 24 hours of compound treatment, compounds tested at 50 nM and 500 nM (concentration of the table not stated)
T5 construct: endogenous in cells; host or cells: hPBMCs (Milecell Biotechnologies)
T5 sequence (Q13422 whole entry): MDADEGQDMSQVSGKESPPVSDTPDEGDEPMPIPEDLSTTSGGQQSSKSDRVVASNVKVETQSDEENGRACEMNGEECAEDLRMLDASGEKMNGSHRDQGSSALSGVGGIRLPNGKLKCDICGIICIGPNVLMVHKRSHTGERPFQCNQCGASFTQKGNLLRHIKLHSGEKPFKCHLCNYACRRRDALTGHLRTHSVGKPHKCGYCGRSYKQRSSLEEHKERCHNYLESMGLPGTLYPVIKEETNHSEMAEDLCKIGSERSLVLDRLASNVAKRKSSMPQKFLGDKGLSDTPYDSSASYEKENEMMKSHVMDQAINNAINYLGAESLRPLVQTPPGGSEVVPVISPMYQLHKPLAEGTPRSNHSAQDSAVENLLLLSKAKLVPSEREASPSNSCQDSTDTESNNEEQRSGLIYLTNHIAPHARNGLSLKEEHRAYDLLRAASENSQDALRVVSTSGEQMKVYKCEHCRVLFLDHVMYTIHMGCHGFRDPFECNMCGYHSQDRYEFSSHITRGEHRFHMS
T5 sequence (Q96SW2 whole entry): as the sequence (Q96SW2 whole entry) above
T5 sequence (Q16531 whole entry partner): as the sequence (Q16531 whole entry partner) above

[10] = molecular target: T6, human Cereblon WT GST-tagged protein (Homo sapiens, UniProt Q96SW2); assay: CRBN-binding affinity by HTRF (CEREBLON BINDING kit); settings: HTRF inhibitory activity, CEREBLON BINDING kit; read-out: HTRF IC50
T6 construct: purchased CISBIO 64BDCRBNPEH
T6 sequence (Q96SW2 whole entry): as the sequence (Q96SW2 whole entry) above

[11] = system: CAL-62; assay: Tumor cell proliferation inhibition (CellTiter-Meiluncell Luminescent Cell Viability Assay), CAL-62; settings: Homo sapiens, CAL-62, 96 h, read-out: inhibitory activity (IC50, nM) against tumor cells proliferation, CAL-62
[12] = system: MM.1R; assay: Tumor cell proliferation inhibition (CellTiter-Meiluncell Luminescent Cell Viability Assay), MM.1R; settings: Homo sapiens, 96 h, read-out: inhibitory activity (IC50, nM) against tumor cells proliferation, MM.1R
[13] = molecular target: T7, GSPT1 (Homo sapiens, UniProt P15170+Q96SW2); assay: Western-blot assay of substrate protein degradation in hPBMCs, GSPT1; format: cell-based; settings: 24 hours of compound treatment, compounds tested at 50 nM and 500 nM (concentration of the table not stated)
T7 construct: endogenous in cells; host or cells: hPBMCs (Milecell Biotechnologies)
T7 sequence (P15170 whole entry): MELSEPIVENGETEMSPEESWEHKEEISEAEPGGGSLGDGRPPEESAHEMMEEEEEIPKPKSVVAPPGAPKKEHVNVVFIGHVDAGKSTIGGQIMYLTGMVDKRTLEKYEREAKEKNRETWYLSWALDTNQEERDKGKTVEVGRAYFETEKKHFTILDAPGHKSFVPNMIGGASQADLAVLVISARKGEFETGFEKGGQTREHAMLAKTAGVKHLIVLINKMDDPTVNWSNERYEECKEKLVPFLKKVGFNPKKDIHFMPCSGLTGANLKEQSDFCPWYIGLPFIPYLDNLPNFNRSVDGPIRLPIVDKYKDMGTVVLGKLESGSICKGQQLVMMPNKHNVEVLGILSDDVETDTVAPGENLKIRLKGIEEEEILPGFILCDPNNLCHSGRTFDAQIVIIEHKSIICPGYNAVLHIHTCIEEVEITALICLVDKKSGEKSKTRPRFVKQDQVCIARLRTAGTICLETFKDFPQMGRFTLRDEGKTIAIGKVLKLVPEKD
T7 sequence (Q96SW2 whole entry): as the sequence (Q96SW2 whole entry) above
T7 sequence (Q16531 whole entry partner): as the sequence (Q16531 whole entry partner) above

SMILES | IC50 [1] | IC50 [2] | IC50 [3] | IKZF2 substrate protein remaining % [4] | CK1a substrate protein remaining % [5] | IKZF3 substrate protein remaining % [6] | IC50 [7] | Weel substrate protein remaining % [8] | IKZF 1 substrate protein remaining % [9] | IC50 [10] | IC50 [11] | IC50 [12] | GSPT1 substrate protein remaining % [13]
Cc1cc(N2CCN(Cc3ccc4c(c3)CN(C3CCC(=O)NC3=O)C4=O)CC2)cs1 (stereo not drawn) [GT-04549, 3-(5-((4-(5-methylthiophen-3-yl)piperazin-1-yl)methyl)-1-oxoisoindolin-2-yl)piperidine-2,6-dione] | 100 to 500 nM | 5 to 10 nM | 5 to 10 nM | A (0% ≤ substrate protein remaining % ≤ 80%) | A (0% ≤ substrate protein remaining % ≤ 80%) | A (0% ≤ substrate protein remaining % ≤ 80%) | 100 to 500 nM | A (0% ≤ substrate protein remaining % ≤ 80%) | A (0% ≤ substrate protein remaining % ≤ 80%) | 500 to 1000 nM | 10 to 50 nM | 100 to 500 nM | A (0% ≤ substrate protein remaining % ≤ 80%)
O=C1CCC(N2Cc3cc(CN4CC=C(c5cccc(Cl)c5Cl)CC4)ccc3C2=O)C(=O)N1 (stereo not drawn) [GT-04550, 3-(5-((4-(2,3-dichlorophenyl)-3,6-dihydropyridin-1(2H)-yl)methyl)-1-oxoisoindolin-2-yl)piperidine-2,6-dione] | 1 to 5 nM | < 1 nM | < 1 nM | A (0% ≤ substrate protein remaining % ≤ 80%) | A (0% ≤ substrate protein remaining % ≤ 80%) | A (0% ≤ substrate protein remaining % ≤ 80%) | 1 to 5 nM | A (0% ≤ substrate protein remaining % ≤ 80%) | A (0% ≤ substrate protein remaining % ≤ 80%) | < 500 nM | < 1 nM | < 1 nM | A (0% ≤ substrate protein remaining % ≤ 80%)
O=C1CCC(N2Cc3cc(CN4CCC(c5cccc(Cl)c5Cl)CC4)ccc3C2=O)C(=O)N1 (stereo not drawn) [GT-04551, 3-(5-((4-(2,3-dichlorophenyl)piperidin-1-yl)methyl)-1-oxoisoindolin-2-yl)piperidine-2,6-dione] | 5 to 10 nM | < 1 nM | 1 to 5 nM | A (0% ≤ substrate protein remaining % ≤ 80%) | A (0% ≤ substrate protein remaining % ≤ 80%) | A (0% ≤ substrate protein remaining % ≤ 80%) | 10 to 50 nM | A (0% ≤ substrate protein remaining % ≤ 80%) | A (0% ≤ substrate protein remaining % ≤ 80%) | 500 to 1000 nM | 1 to 5 nM | 1 to 5 nM | A (0% ≤ substrate protein remaining % ≤ 80%)
O=C1CCC(N2Cc3cc(CN4CCC(c5cccc(F)c5F)CC4)ccc3C2=O)C(=O)N1 (stereo not drawn) [GT-04552, 3-(5-((4-(2,3-difluorophenyl)piperidin-1-yl)methyl)-1-oxoisoindolin-2-yl)piperidine-2,6-dione] | 10 to 50 nM | 1 to 5 nM | 1 to 5 nM | A (0% ≤ substrate protein remaining % ≤ 80%) | A (0% ≤ substrate protein remaining % ≤ 80%) | A (0% ≤ substrate protein remaining % ≤ 80%) | 50 to 100 nM | A (0% ≤ substrate protein remaining % ≤ 80%) | A (0% ≤ substrate protein remaining % ≤ 80%) | 1000 to 1500 nM | 5 to 10 nM | 5 to 10 nM | A (0% ≤ substrate protein remaining % ≤ 80%)
O=C1CCC(N2Cc3cc(CN4CCC(c5cccc(F)c5Cl)CC4)ccc3C2=O)C(=O)N1 (stereo not drawn) [GT-04553, 3-(5-((4-(2-chloro-3-fluorophenyl)piperidin-1-yl)methyl)-1-oxoisoindolin-2-yl)piperidine-2,6-dione] | 10 to 50 nM | 1 to 5 nM | 1 to 5 nM | A (0% ≤ substrate protein remaining % ≤ 80%) | A (0% ≤ substrate protein remaining % ≤ 80%) | A (0% ≤ substrate protein remaining % ≤ 80%) | 10 to 50 nM | A (0% ≤ substrate protein remaining % ≤ 80%) | A (0% ≤ substrate protein remaining % ≤ 80%) | 1000 to 1500 nM | 1 to 5 nM | 1 to 5 nM | A (0% ≤ substrate protein remaining % ≤ 80%)
O=C1CCC(N2Cc3cc(CN4CC=C(c5cccc(F)c5Cl)CC4)ccc3C2=O)C(=O)N1 (stereo not drawn) [GT-04554, 3-(5-((4-(2-chloro-3-fluorophenyl)-3,6-dihydropyridin-1(2H)-yl)methyl)-1-oxoisoindolin-2-yl)piperidine-2,6-dione] | 1 to 5 nM | < 1 nM | < 1 nM | A (0% ≤ substrate protein remaining % ≤ 80%) | A (0% ≤ substrate protein remaining % ≤ 80%) | A (0% ≤ substrate protein remaining % ≤ 80%) | 1 to 5 nM | A (0% ≤ substrate protein remaining % ≤ 80%) | A (0% ≤ substrate protein remaining % ≤ 80%) | 500 to 1000 nM | < 1 nM | < 1 nM | A (0% ≤ substrate protein remaining % ≤ 80%)
O=C1CCC(N2Cc3cc(CN4CC=C(c5ccnc(F)c5F)CC4)ccc3C2=O)C(=O)N1 (stereo not drawn) [GT-04555, 3-(5-((2',3'-difluoro-3,6-dihydro-[4,4'-bipyridin]-1(2H)-yl)methyl)-1-oxoisoindolin-2-yl)piperidine-2,6-dione] | 100 to 500 nM | 5 to 10 nM | 10 to 50 nM | A (0% ≤ substrate protein remaining % ≤ 80%) | A (0% ≤ substrate protein remaining % ≤ 80%) | A (0% ≤ substrate protein remaining % ≤ 80%) | 500 to 1000 nM | A (0% ≤ substrate protein remaining % ≤ 80%) | A (0% ≤ substrate protein remaining % ≤ 80%) | 500 to 1000 nM | 10 to 50 nM | 5 to 10 nM | A (0% ≤ substrate protein remaining % ≤ 80%)
O=C1CCC(N2Cc3cc(CN4CC=C(c5cncc(Cl)c5Cl)CC4)ccc3C2=O)C(=O)N1 (stereo not drawn) [GT-04558, 3-(5-((4,5-dichloro-3',6'-dihydro-[3,4'-bipyridin]-1'(2'H)-yl)methyl)-1-oxoisoindolin-2-yl)piperidine-2,6-dione] | 5 to 10 nM | < 1 nM | 1 to 5 nM | A (0% ≤ substrate protein remaining % ≤ 80%) | A (0% ≤ substrate protein remaining % ≤ 80%) | A (0% ≤ substrate protein remaining % ≤ 80%) | 5 to 10 nM | A (0% ≤ substrate protein remaining % ≤ 80%) | A (0% ≤ substrate protein remaining % ≤ 80%) | < 500 nM | 1 to 5 nM | < 1 nM | A (0% ≤ substrate protein remaining % ≤ 80%)
O=C1CCC(N2Cc3cc(CN4CC=C(c5ccnc(Cl)c5Cl)CC4)ccc3C2=O)C(=O)N1 (stereo not drawn) [GT-04559, 3-(5-((2',3'-dichloro-3,6-dihydro-[4,4'-bipyridin]-1(2H)-yl)methyl)-1-oxoisoindolin-2-yl)piperidine-2,6-dione] | 10 to 50 nM | 1 to 5 nM | 1 to 5 nM | A (0% ≤ substrate protein remaining % ≤ 80%) | A (0% ≤ substrate protein remaining % ≤ 80%) | A (0% ≤ substrate protein remaining % ≤ 80%) | 10 to 50 nM | A (0% ≤ substrate protein remaining % ≤ 80%) | A (0% ≤ substrate protein remaining % ≤ 80%) | < 500 nM | 1 to 5 nM | 1 to 5 nM | A (0% ≤ substrate protein remaining % ≤ 80%)
